Source: PMC10794345, “Analysis of vascular disruption in zebrafish embryos as an endpoint to predict developmental toxicity” (Archives of Toxicology, 2023)
Where two headings read alike, the source gives them in different places.

How the values were obtained:
[1] = system: zebrafish embryos (wild-type strain OBI/WIK); assay: ISV inhibition (angiogenesis) by video subtraction in wildtype zebrafish embryos; format: in vivo, zebrafish (D. rerio)
Experimental: A wild-type adult zebrafish strain (D. rerio, strain OBI/WIK, generation F3), originating from an in-house cross of zebrafish strains UFZ-OBI and WIK, was used for all experiments. The Tg(kdr:EGFP) strain was kindly provided by the University of Jena. Fish were fed twice daily with dry food (SDS-400, Special Diets Services, Essex England) and once daily with Artemia sp. […] Spawning trays were inserted 4–6 h before the end of the light cycle. The following day, spawning was initiated by the onset of light and eggs were collected within 1 h. Exposure in all experiment was ceased at 96 hpf.
(§1) Exposure was conducted in rectangular 96-well microplates (Clear Polystyrene, flat bottom, Uniplate, Whatman, GE Healthcare) covered by a lid with a test volume of 400 µL of exposure media. For each replicate one embryo per well and 16 wells per concentration were assessed. Experiments were performed with at least two replicates on independent days and breeding.
To determine the number of ISVs in the trunk region, high-resolution images of 96 hpf-old zebrafish embryos were recorded using a Leica DM6B-Z microscope (Leica, Wetzlar, Germany) attached to the VAST imaging system, and a camera (Leica DFC9000 sCMOS, objective: HC APO L U-V-I 20x/0.50 WATER UV). A series of 20 images with a frame rate of 20 images per second and a 2 × 2 pixel binning was recorded in autofocus mode for each embryo.
A series of MATLAB scripts (Supplement File ‘Workflow 3.m’ and ‘Workflow 4.m’) was used to convert the image series into a video and to visualize the blood vessel by applying a video subtraction approach (Figure SI1). Briefly, each video frame was subtracted from the average image of the whole image sequence and converted to a binary image by applying a Gaussian blur (σ = 5) and a threshold of 0.025 to obtain optimal contrast in binary images. Subsequently, the sum of all binary images was calculated. Due to movement of the blood cells the subtraction approach removed all parts from the image which were not moving resulting in an image of the blood vessels. This binary image of the blood vessel network in the zebrafish embryo tail was then processed with the FishInspector annotation software (version 1.70). […] The number of ISVs was obtained by application of a KNIME workflow to FishInspector annotation files. Subsequently concentration–response analysis was conducted using a KNIME workflow. The coefficient of variation (CV) of controls was calculated for both the subtraction and the fluorescence-based method by dividing the standard deviation of individual embryos with the control mean: CVControl=SD/Mean.
The assessment of lethality and morphological features was based on the percentage of embryos affected. Therefore, morphological endpoints were dichotomized, i.e. feature metrics were converted to the percentage of embryos deviating from controls. An embryo was considered to deviate when it was outside 1.5-fold of the standard deviation range of the mean of the control group. The control mean was determined by pooling control embryos across all experiments (n = 160) (available at git.ufz.de). For heart rate and angiogenesis (number of ISVs) the analysis was based on normalized values, i.e. for each experiment the values of the treatment were divided by the control value. The experiments were designed to calculate effect concentrations based on modelled curve fits. Different concentrations were used in at least two independent replicates, with means of each replicate based on the exposure of 16 different embryos per concentrations. Effect concentration were only modeled when three conditions were met. […] (2) The Akaike information criterion (AIC) for the log-logistic model was lower than the AIC for a linear model with slope 0 (lower p values for the letter would indicate that there is no trend in the data).

[2] = Lethality of zebrafish embryos at 96 hpf; format: in vivo, zebrafish (D. rerio); details: OBI/WIK wild-type, zebrafish, in vivo, other: immersion of embryos in exposure media, ± 95% confidence intervals
Experimental: as §1, with “Fertilized and normally developed embryos were selected according to Kimmel et al. ([1995]) with a dissection microscope (Olympus SZx7-ILLT) at 1 hpf. Depending on experiment, exposure was started within 2–3 h post-fertilization (16–128 cell stages) or at 24 hpf. Exposure” for “Exposure”
Concentration–response curves were fitted for lethality, heart rate, morphological features as previously described (Teixidó et al. [2019], [2022]). The assessment of lethality and morphological features was based on the percentage of embryos affected. Therefore, morphological endpoints were dichotomized, i.e. feature metrics were converted to the percentage of embryos deviating from controls. An embryo was considered to deviate when it was outside 1.5-fold of the standard deviation range of the mean of the control group. The control mean was determined by pooling control embryos across all experiments (n = 160) (available at git.ufz.de). For heart rate and angiogenesis (number of ISVs) the analysis was based on normalized values, i.e. for each experiment the values of the treatment were divided by the control value. The experiments were designed to calculate effect concentrations based on modelled curve fits. Different concentrations were used in at least two independent replicates, with means of each replicate based on the exposure of 16 different embryos per concentrations. Effect concentration were only modeled when three conditions were met. (1) The Tukey trend test based on the R package "tukeytrend" (Schaarschmidt et al. [2022]) was deriving a maximum p-value of 0.05. (2) The Akaike information criterion (AIC) for the log-logistic model was lower than the AIC for a linear model with slope 0 (lower p values for the letter would indicate that there is no trend in the data). (3) We calculated effect concentrations only if at least 30% of embryos for that endpoint were affected in at least one exposure concentration of (for normalized data) a reduction or increase by 30% was observed.

[3] = Danio rerio, 24–96 hpf exposure, ± 95% confidence intervals, read-out: IC50 of ISV inhibition

SMILES: CN(C)c1ccc(C=C2C(=O)Nc3ccccc32)cc1 [SU4312]
- IC50 ([1]; 3–96 hpf exposure, ± 95% confidence intervals, read-out: IC50 of ISV inhibition): 2300 ± 420 nM
- IC50 ([1]; 24–96 hpf exposure, ± 95% confidence intervals, read-out: IC50 of ISV inhibition): 2590 ± 600 nM
- IC50 ([1]; exposure window not stated at this place, read-out: IC50 / loss of ISV number, current study as restated in discussion): 90 nM

SMILES: Cc1cc(C)c(/C=C2\C(=O)Nc3ccccc32)[nH]1 [SU5416]
- LC50 ([2]; 3–96 hpf exposure): 890 ± 420 nM
- LC50 ([2]; 24–96 hpf exposure): 1930 ± 830 nM
- IC50 [1, 3]: 2100 ± 350 nM

SMILES: CNC(=O)c1cc(Oc2ccc(NC(=O)Nc3ccc(Cl)c(C(F)(F)F)c3)cc2)ccn1 [Sorafenib]
- LC50 ([2]; 3–96 hpf exposure): 2800 ± 310 nM
- IC50 ([1]; Danio rerio, 3–96 hpf exposure, ± 95% confidence intervals, read-out: IC50 of ISV inhibition): 1370 ± 100 nM
- IC50 [1, 3]: 1360 ± 240 nM
